In ChEMBL document CHEMBL3886280, “Nicotinic receptor compounds” (2015):

Target: Neuronal acetylcholine receptor subunit alpha-7 (Rattus norvegicus, UniProt Q05941)
Assay: Inhibition Assay: Compounds ([…]) were also evaluated for inhibition of binding to a7 nAChR using [125I]iodoMLA as previously reported in Carroll et al. The binding assays were conducted and the Ki values calculated as described in Carroll, F. I. et al., "Synthesis, nicotinic acetylcholine receptor binding, and antinociceptive properties of 2-exo-2-(2',3'-disubstituted 5'-pyridinyl)-7- …

Neuronal acetylcholine receptor subunit alpha-7, sequence (Q05941 whole entry): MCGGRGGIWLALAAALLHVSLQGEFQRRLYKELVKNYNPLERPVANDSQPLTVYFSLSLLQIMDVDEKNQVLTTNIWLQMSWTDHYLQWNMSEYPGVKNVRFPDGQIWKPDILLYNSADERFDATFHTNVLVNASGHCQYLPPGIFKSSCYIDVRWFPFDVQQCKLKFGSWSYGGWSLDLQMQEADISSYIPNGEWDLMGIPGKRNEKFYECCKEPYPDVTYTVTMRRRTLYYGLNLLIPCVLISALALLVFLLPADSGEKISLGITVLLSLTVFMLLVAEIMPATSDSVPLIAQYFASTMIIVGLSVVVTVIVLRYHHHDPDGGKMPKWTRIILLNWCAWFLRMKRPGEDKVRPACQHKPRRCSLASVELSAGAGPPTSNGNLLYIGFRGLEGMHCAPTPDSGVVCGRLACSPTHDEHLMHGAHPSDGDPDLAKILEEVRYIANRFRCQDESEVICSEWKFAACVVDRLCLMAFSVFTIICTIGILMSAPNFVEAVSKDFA

| Compound | Ki |
| --- | --- |
| Fc1ncc(C2CC3CCC2N3)cc1-c1ccccc1 (racemic) | > 2 µM |
| Fc1ncc(C2CC3CCC2N3)cc1-c1cccc(Cl)c1 (configuration not stated) | > 2 µM |
